Results as given in US7700584B2 (Hangzhou Minsheng Pharmaceuticals Co., Ltd., priority 2004, dated 2010).

Columns and labels:
[1] = test system: U-937 human histocytic lymphoma; experiment: In vitro inhibition rate to tumor cells (MTT), U-937; type: cell-based; settings: 50 μg/ml
[2] = test system: A-549 human lung adenocarcinoma; experiment: In vitro inhibition rate to tumor cells (MTT), A-549; type: cell-based; settings: 50 μg/ml
[3] = test system: Bel-7402 human hepatic carcinoma; experiment: In vitro inhibition rate to tumor cells (MTT), Bel-7402; type: cell-based; settings: 50 μg/ml
[4] = test system: MCF-7 human mammary adenocarcinoma; experiment: In vitro inhibition rate to tumor cells (MTT), MCF-7; type: cell-based; settings: 50 μg/ml
[5] = test system: SMMC-7721 human hepatic carcinoma; experiment: In vitro inhibition rate to tumor cells (MTT), SMMC-7721; type: cell-based; settings: 50 μg/ml
[6] = test system: HL-60 human promyelocytic leukemia; experiment: In vitro inhibition rate to tumor cells (MTT), HL-60; type: cell-based; settings: 50 μg/ml
[7] = test system: Hela human cervical carcinoma; experiment: In vitro inhibition rate to tumor cells (MTT), Hela; type: cell-based; settings: 50 μg/ml
[8] = test system: LLC mouse Lewis lung carcinoma; experiment: In vitro inhibition rate to tumor cells (MTT), LLC; type: cell-based; settings: 50 μg/ml
293 cells = experiment: Cell status of 293 cells treated with sample alone (herpes virus screening)
[9] = test system: mouse grafted sarcoma S-180; experiment: Activity against mouse grafted sarcoma S-180; type: in vivo, Kunming mice; settings: 1 mg/kg i.v., 6 doses; for Tumor weight: X ± SD, n = 10
Method: (1) Experimental animals: Kunming mice weighting 18-22 g;
(2) 100 mg/ml solutions of the 3 compounds were prepared, respectively, in water for injection (1% surface surfactant was added into the solution of Compound 6). 5-FU and camptothecine, 30 mg/kg and 1 mg/kg, respectively, were used as positive controls;
3. Route of Administration: Intravenous Injection.
(§1) The experiments were performed according to “Guideline for New Drugs (Western medicines) in Pre-clinical Stages” issued by Bureau of Drug Policy & Administration of the People's Republic of China, and the relevant methods in “Methodology of Pharmaceutical Experiments”, Xu Shuyun et al. ed. 120 male Kunming mice weighting […] were allowed to grow 3 days. No abnormality was observed. The mice were routinely inoculated in oxter with mouse sarcoma S-180, and weighted 4 hrs. after inoculation. The mice were randomly divided into 12 groups, 10 mice/group. Group 1 was given 0.3 ml of physiological saline as negative control; Group 2 was given 5-FU as positive control, 0.6 mg/mouse; Group 3 was given hydroxycamptothecine as positive control, 0.02 mg/mouse. Groups 4, 5 and 6 were injected with 10% Compound 6, 0.4 ml/mouse, 0.2 ml/mouse, and 0.1 ml/mouse, respectively. Groups 7, 8 and 9 were injected with 10% Compound 8, 0.4 ml/mouse, 0.2 ml/mouse, and 0.1 ml/mouse, respectively. Groups 10, 11, and 12 were injected with 10% Compound 20, 0.4 ml/mouse, 0.2 ml/mouse, and 0.1 ml/mouse, respectively. The tested compounds were administered on the next day after inoculation, once a day on alternate days, 6 doses totally administered. On the next day after the end dose, the mice were weighed and sacrificed. After the tumor was excised, body weight and tumor weight were recorded. The tumor inhibition rate was calculated based on the following formula: [(average tumor weight of the control groups−average tumor weight of the experimental groups)/average tumor weight of the control groups]×100%. The data was processed statistically. The above experiments were repeated three times.

[10] = test system: mouse grafted liver cancer H22; experiment: Activity against mouse grafted liver cancer H22; type: in vivo, Kunming mice; settings: for Tumor weight: X ± SD, n = 10
Method: as §1
The experiments were identical with the experiments for activity against mouse grafted sarcoma S-180, except that the cell line inoculated was liver cancer H22. The experiments were repeated three times.

[11] = test system: mouse grafted uterine cervix cancer U14; experiment: Activity against mouse grafted uterine cervix cancer U14; type: in vivo, Kunming mice; settings: 1 mg/kg; for Tumor weight: X ± SD, n = 10
Method: as §1
(§2) The experiments were identical with the experiments for activity against mouse grafted sarcoma S-180, except the following:
(1) the tumor cell line inoculated was mouse grafted uterine cervix cancer U14;
(2) all the mice were female.

mouse lung cancer Lewis = experiment: Activity against mouse grafted lung cancer Lewis; type: in vivo, Kunming mice; settings: Lewis, 1 mg/kg; for Tumor weight: X ± SD, n = 10
Method: as §1, §2
(1) the tumor cell line inoculated was mouse lung cancer Lewis;
(2) Compound 6, Compound 8 and Compound 21 were not tested for their activity;
(3) the mice were divided into six groups.

[12] = H22, first experiment, 1 mg/kg i.v., 6 doses
[13] = H22, second experiment, 1 mg/kg

C=C1CC2(OC(=O)c3ccccc3)OC3(CC2C(C)C)C(C)CCC13 (stereo not drawn) [Compound 4, Curcumol benzoate]
inhibition rate, Results (%) U-937 ([1]; Table 1): 52.23%
inhibition rate, Results (%) U-937 ([1]; Table 2 (repeated screening)): 51.00%
inhibition rate, Results (%) A-549 ([2]; Table 1): 10.51%
inhibition rate, Results (%) A-549 ([2]; Table 2 (repeated screening)): 14.03%
inhibition rate, Results (%) Bel-7402 ([3]; Table 1): 43.21%
inhibition rate, Results (%) Bel-7402 ([3]; Table 2 (repeated screening)): 43.02%
inhibition rate, Results (%) MCF-7 ([4]; Table 1): 49.23%
inhibition rate, Results (%) MCF-7 ([4]; Table 2 (repeated screening)): 50.09%
inhibition rate, Results (%) SMMC-7721 ([5]; Table 1): 5.30%
inhibition rate, Results (%) SMMC-7721 ([5]; Table 2 (repeated screening)): 1.96%
inhibition rate, Results (%) HL-60 ([6]; Table 1): 42.1%
inhibition rate, Results (%) HL-60 ([6]; Table 2 (repeated screening)): 40.01%
inhibition rate, Results (%) Hela ([7]; Table 1): 73.22%
inhibition rate, Results (%) Hela ([7]; Table 2 (repeated screening)): 70.12%
inhibition rate, Results (%) LLC ([8]; Table 1): 1.01%
inhibition rate, Results (%) LLC ([8]; Table 2 (repeated screening)): 0.23%
Cytopathy and cell status, Sample (293 cells; 200 μg/ml, 24 hrs): Good

CC(C)C1CC23OC1(O)CC(=CO[N+](=O)[O-])C2CCC3C (stereo not drawn) [Compound 19, Curcumol mononitrate]
inhibition rate, Results (%) U-937 ([1]; Table 1): 50.97%
inhibition rate, Results (%) U-937 ([1]; Table 2 (repeated screening)): 42.23%
inhibition rate, Results (%) A-549 ([2]; Table 1): 2.51%
inhibition rate, Results (%) A-549 ([2]; Table 2 (repeated screening)): 3.10%
inhibition rate, Results (%) Bel-7402 ([3]; Table 1): 4.32%
inhibition rate, Results (%) Bel-7402 ([3]; Table 2 (repeated screening)): 8.95%
inhibition rate, Results (%) MCF-7 ([4]; Table 1): 12.6%
inhibition rate, Results (%) MCF-7 ([4]; Table 2 (repeated screening)): 0.16%
inhibition rate, Results (%) SMMC-7721 ([5]; Table 1): 23.01%
inhibition rate, Results (%) SMMC-7721 ([5]; Table 2 (repeated screening)): 12.301%
inhibition rate, Results (%) HL-60 ([6]; Table 1): 54.03%
inhibition rate, Results (%) HL-60 ([6]; Table 2 (repeated screening)): 55.98%
inhibition rate, Results (%) Hela ([7]; Table 1): 55.67%
inhibition rate, Results (%) Hela ([7]; Table 2 (repeated screening)): 50.27%
inhibition rate, Results (%) LLC ([8]; Table 1): −15.52%
inhibition rate, Results (%) LLC ([8]; Table 2 (repeated screening)): −16.00%
Cytopathy and cell status, Sample (293 cells; 200 μg/ml, 24 hrs): Apoptotic

CC(C)C1CC23OC1(O)CC(C)(N1CCNCC1)C2CCC3C (stereo not drawn) [Compound 43, Curcumol piperazine without double bond]
inhibition rate, Results (%) U-937 ([1]; Table 1): 16.32%
inhibition rate, Results (%) U-937 ([1]; Table 2 (repeated screening)): 12.30%
inhibition rate, Results (%) A-549 ([2]; Table 1): 13.39%
inhibition rate, Results (%) A-549 ([2]; Table 2 (repeated screening)): 11.24%
inhibition rate, Results (%) Bel-7402 ([3]; Table 1): 9.15%
inhibition rate, Results (%) Bel-7402 ([3]; Table 2 (repeated screening)): −4.98%
inhibition rate, Results (%) MCF-7 ([4]; Table 1): 43.21%
inhibition rate, Results (%) MCF-7 ([4]; Table 2 (repeated screening)): 41.94%
inhibition rate, Results (%) SMMC-7721 ([5]; Table 1): −10.12%
inhibition rate, Results (%) SMMC-7721 ([5]; Table 2 (repeated screening)): −8.98%
inhibition rate, Results (%) HL-60 ([6]; Table 1): 2.56%
inhibition rate, Results (%) HL-60 ([6]; Table 2 (repeated screening)): 2.00%
inhibition rate, Results (%) Hela ([7]; Table 1): 62.13%
inhibition rate, Results (%) Hela ([7]; Table 2 (repeated screening)): 59.66%
inhibition rate, Results (%) LLC ([8]; Table 1): −2.06%
inhibition rate, Results (%) LLC ([8]; Table 2 (repeated screening)): −11.23%
Cytopathy and cell status, Sample (293 cells; 50 μg/ml, 293 cells without virus, 12 hrs): Good

hydroxycamptothecine [reference compound]
Average weight (g)-after administration ([9]; S-180, first experiment): 20.8 g
Inhibition rate (%) ([9]; S-180, first experiment): 65.2%
Tumor weight ([9]; S-180, first experiment): 0.87 ± 0.28 g
Average weight(g)-after administration ([9]; S-180, second experiment): 20.8 g
Inhibition rate (%) ([9]; S-180, second experiment): 64.6%
Tumor weight ([9]; S-180, second experiment): 0.92 ± 0.38 g
Average weight(g)-after administration [10, 12]: 20.5 g
Inhibition rate (%) [10, 12]: 63.9%
Tumor weight [10, 12]: 1.12 ± 0.28 g
Average weight(g)-after administration [10, 13]: 20.2 g
Inhibition rate (%) [10, 13]: 66.9%
Tumor weight [10, 13]: 1.00 ± 0.28 g
Average weight (g)-after administration ([10]; H22, third experiment, 1 mg/kg): 22.2 g
Inhibition rate (%) ([10]; H22, third experiment, 1 mg/kg): 65.3%
Tumor weight ([10]; H22, third experiment, 1 mg/kg): 1.05 ± 0.28 g
Average weight(g)-after administration ([11]; U14, first experiment): 22.2 g
Inhibition rate (%) ([11]; U14, first experiment): 45.8%
Tumor weight ([11]; U14, first experiment): 1.90 ± 0.28 g
Average weight(g)-after administration ([11]; U14, second experiment): 22.3 g
Inhibition rate (%) ([11]; U14, second experiment): 46.5%
Tumor weight ([11]; U14, second experiment): 1.82 ± 0.28 g
Average weight (g)-after administration ([11]; U14, third experiment): 21.3 g
Inhibition rate (%) ([11]; U14, third experiment): 45.6%
Tumor weight ([11]; U14, third experiment): 1.96 ± 0.28 g
Average weight (g)-after administration (mouse lung cancer Lewis; second experiment): 21.0 g
Inhibition rate (%) (mouse lung cancer Lewis; second experiment): 50.2%
Tumor weight (mouse lung cancer Lewis; second experiment): 1.20 ± 0.28 g
Average weight (g)-after administration (mouse lung cancer Lewis; third experiment): 21.5 g
Inhibition rate (%) (mouse lung cancer Lewis; third experiment): 51.9%
Tumor weight (mouse lung cancer Lewis; third experiment): 1.30 ± 0.28 g
